# PubChem BioAssay (NCI)
#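 Cultured in 96-well plates, cells were exposed to test compound for 48 hours across five concentrations. Abbreviation: GI50, concentration required for 50% inhibition of growth. The concentration for full growth arrest is given as TGI.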
# Key:
# Assay in all cases: NCI tumour cell line growth inhibition, 48 h
# [1] = test system: IGROV1 ovarian
# [2] = test system: NCI-H226 lung
# [3] = test system: SNB-19 CNS
# [4] = test system: SR leukemia
# [5] = test system: CCRF-CEM leukemia
# [6] = test system: CAKI-1 renal
# [7] = test system: SF-268 CNS
# [8] = test system: RPMI-8226 leukemia
# [9] = test system: RXF 393 renal
# [10] = test system: DU-145 prostate
# [11] = test system: PC-3 prostate
# [12] = test system: ACHN renal
# [13] = test system: HS 578T breast
# [14] = test system: HCC-2998 colon
# [15] = test system: UO-31 renal
# [16] = test system: OVCAR-3 ovarian
# [17] = test system: SF-295 CNS
# [18] = test system: MDA-MB-435
# [19] = test system: NCI/ADR-RES ovarian
# [20] = test system: SK-OV-3 ovarian
# [21] = test system: EKVX NSCLC
# [22] = test system: T-47D breast
# [23] = test system: M14 melanoma
# [24] = test system: OVCAR-4 ovarian
# [25] = test system: SNB-75 CNS
# [26] = test system: OVCAR-8 ovarian
# [27] = test system: UACC-62 melanoma
# [28] = test system: NCI-H460 lung
# [29] = test system: SK-MEL-28 melanoma
# [30] = test system: U251 CNS
# [31] = test system: HCT-15 colon
# [32] = test system: HOP-92 NSCLC
# [33] = test system: SK-MEL-2 melanoma
# [34] = test system: LOX IMVI melanoma
# [35] = test system: NCI-H23 lung
# [36] = test system: OVCAR-5 ovarian
# [37] = test system: KM12 colon
# [38] = test system: UACC-257 melanoma
# [39] = test system: SF-539 CNS
# [40] = test system: HT29 colon
# [41] = test system: MCF7 breast
# [42] = test system: 786-0 renal
# [43] = test system: MDA-MB-231 breast
# [44] = test system: COLO 205 colon
# [45] = test system: SW-620 colon
# [46] = test system: A498 renal
# [47] = test system: SN12C renal
# [48] = test system: MOLT-4 leukemia
# [49] = test system: HOP-62 NSCLC
# [50] = test system: MALME-3M melanoma
# [51] = test system: TK-10 renal
# [52] = test system: HCT-116 colon
# [53] = test system: NCI-H522 lung
# [54] = test system: K-562 leukemia
# [55] = test system: A549 NSCLC
# [56] = test system: HL-60(TB) leukemia
# [57] = test system: BT-549 breast
# [58] = test system: SK-MEL-5 melanoma
smiles,measurement,setting,value
COc1ccc(-n2c(=S)sc3c(Cl)nc(C)nc32)c(OC)c1,GI50,[1],1.93 µM
same,TGI,[1],3.99 µM
same,GI50,[2],3.22 µM
same,TGI,[2],12 µM
same,GI50,[3],2.4 µM
same,TGI,[3],5.42 µM
same,GI50,[4],1.42 µM
same,TGI,[4],5.52 µM
same,GI50,[5],2.66 µM
same,TGI,[5],7.45 µM
same,GI50,[6],6.16 µM
same,TGI,[6],19.3 µM
same,GI50,[7],2.17 µM
same,TGI,[7],5.21 µM
same,GI50,[8],3.45 µM
same,TGI,[8],14 µM
same,GI50,[9],2 µM
same,TGI,[9],4.07 µM
same,GI50,[10],1.84 µM
same,TGI,[10],3.25 µM
same,GI50,[11],2.37 µM
same,TGI,[11],5.91 µM
same,GI50,[12],2.08 µM
same,TGI,[12],3.97 µM
same,GI50,[13],2.66 µM
same,TGI,[13],7.71 µM
same,GI50,[14],16.2 µM
same,TGI,[14],31.1 µM
same,GI50,[15],3.62 µM
same,TGI,[15],15.4 µM
same,GI50,[16],1.8 µM
same,TGI,[16],3.26 µM
same,GI50,[17],7.06 µM
same,TGI,[17],20.1 µM
same,GI50,[18],2.14 µM
same,TGI,[18],3.93 µM
same,GI50,[19],13.2 µM
same,TGI,[19],72.9 µM
same,GI50,[20],14.3 µM
same,TGI,[20],27.3 µM
same,GI50,[21],4.55 µM
same,TGI,[21],17 µM
same,GI50,[22],6.42 µM
same,TGI,[22],21.6 µM
same,GI50,[23],1.84 µM
same,TGI,[23],4.05 µM
same,GI50,[24],4.73 µM
same,TGI,[24],15.6 µM
same,GI50,[25],1.97 µM
same,TGI,[25],4.26 µM
same,GI50,[26],2.66 µM
same,TGI,[26],7.4 µM
same,GI50,[27],2.06 µM
same,TGI,[27],4.69 µM
same,GI50,[28],3.12 µM
same,TGI,[28],9.04 µM
same,GI50,[29],2.18 µM
same,TGI,[29],4.6 µM
same,GI50,[30],1.91 µM
same,TGI,[30],3.65 µM
same,GI50,[31],1.96 µM
same,TGI,[31],5.43 µM
same,GI50,[32],2.06 µM
same,TGI,[32],8.46 µM
same,GI50,[33],2.04 µM
same,TGI,[33],3.97 µM
same,GI50,[34],1.71 µM
same,TGI,[34],3.19 µM
same,GI50,[35],2.44 µM
same,TGI,[35],5.87 µM
same,GI50,[36],6.15 µM
same,TGI,[36],20.9 µM
same,GI50,[37],3.33 µM
same,TGI,[37],11.5 µM
same,GI50,[38],2.35 µM
same,TGI,[38],5.62 µM
same,GI50,[39],2.07 µM
same,TGI,[39],4.55 µM
same,GI50,[40],2.41 µM
same,TGI,[40],6.28 µM
same,GI50,[41],3.67 µM
same,TGI,[41],15.6 µM
same,GI50,[42],4.42 µM
same,TGI,[42],20.4 µM
same,GI50,[43],3.16 µM
same,TGI,[43],10.3 µM
same,GI50,[44],3.83 µM
same,TGI,[44],13.3 µM
same,GI50,[45],2.57 µM
same,TGI,[45],5.44 µM
same,GI50,[46],11.5 µM
same,TGI,[46],23.8 µM
same,GI50,[47],2.85 µM
same,TGI,[47],9.14 µM
same,GI50,[48],2.12 µM
same,TGI,[48],5.48 µM
same,GI50,[49],2.57 µM
same,TGI,[49],7.68 µM
same,GI50,[50],2.23 µM
same,TGI,[50],6.23 µM
same,GI50,[51],4.66 µM
same,TGI,[51],18.7 µM
same,GI50,[52],1.83 µM
same,TGI,[52],3.71 µM
same,GI50,[53],1.84 µM
same,TGI,[53],3.89 µM
same,GI50,[54],1.19 µM
same,TGI,[54],3.79 µM
same,GI50,[55],4.45 µM
same,TGI,[55],15.8 µM
same,GI50,[56],1.43 µM
same,TGI,[56],5.83 µM
same,GI50,[57],1.99 µM
same,TGI,[57],4.28 µM
COC1=CC(=O)O/C1=C(\OC)C1OC1c1ccccc1 (stereo not given),TGI,[1],> 100 µM
same,TGI,[2],> 100 µM
same,TGI,[3],> 100 µM
same,TGI,[4],93.8 µM
same,TGI,[5],> 100 µM
same,TGI,[6],> 100 µM
same,TGI,[7],> 100 µM
same,TGI,[8],> 100 µM
same,TGI,[9],> 100 µM
same,TGI,[10],> 100 µM
same,TGI,[11],> 100 µM
same,TGI,[12],> 100 µM
same,TGI,[13],> 100 µM
same,TGI,[14],> 100 µM
same,TGI,[15],> 100 µM
same,TGI,[16],> 100 µM
same,TGI,[17],> 100 µM
same,TGI,[58],> 100 µM
same,TGI,[18],> 100 µM
same,TGI,[19],> 100 µM
same,TGI,[20],> 100 µM
same,TGI,[21],> 100 µM
same,TGI,[22],> 100 µM
same,TGI,[23],> 100 µM
same,TGI,[24],> 100 µM
same,TGI,[26],> 100 µM
same,TGI,[27],> 100 µM
same,TGI,[28],> 100 µM
same,TGI,[29],> 100 µM
same,TGI,[30],> 100 µM
same,TGI,[31],> 100 µM
same,TGI,[32],> 100 µM
same,TGI,[33],> 100 µM
same,TGI,[34],> 100 µM
same,TGI,[35],> 100 µM
same,TGI,[36],> 100 µM
same,TGI,[37],> 100 µM
same,TGI,[38],> 100 µM
same,TGI,[39],> 100 µM
same,TGI,[40],> 100 µM
same,TGI,[41],> 100 µM
same,TGI,[42],> 100 µM
same,TGI,[43],> 100 µM
same,TGI,[44],> 100 µM
same,TGI,[45],> 100 µM
same,TGI,[46],> 100 µM
same,TGI,[47],> 100 µM
same,TGI,[48],> 100 µM
same,TGI,[49],> 100 µM
same,TGI,[50],> 100 µM
same,TGI,[51],> 100 µM
same,TGI,[52],> 100 µM
same,TGI,[53],> 100 µM
same,TGI,[55],> 100 µM
same,TGI,[56],> 100 µM
same,TGI,[57],> 100 µM
